What was measured:
[1] = tested on: corneal epithelium in wounded mouse eyes; assay: In vivo healing of mouse corneal epithelium, wound size by fluorescein staining; settings: 100 ng/ml EGF, positive control; 16 hours post-treatment
Excerpt: To examine the possible therapeutic effects of CMPs and CMP-TC conjugates of the invention, studies were designed to test certain CMPs and CMP-TC conjugates in an in vivo setting—the healing of the corneal epithelium in wounded mouse eyes. Female mice (8-week-old C57BL/6; seven mice per sample tested) were anesthetized, and corneas of the mouse eyes were wounded with a 1.5 mm superficial epithelial wound of sufficient depth to expose the anterior stroma thereby damaging and exposing the collagen matrix. […] Following wounding, corneas were treated with 25 nM (about 3 mg/kg) CMPs or CMP-TC conjugates, in aqueous PBS. Negative control mice were treated with vehicle only (PBS), and positive control mice were treated with 100 ng/ml epidermal growth factor (EGF). Wound size at various time points over 48 hours was examined by fluorescein staining (see Carlson et al., id.), and documented via fluorescent photomicrography, and quantified using Image J software (see Rush, J. S. et al., Investig. Ophthalmol. Visual Sci. 57 (14): 5864-5871 (2016); Rush, J. S. et al., Investig. Ophthalmol. Visual Sci. 55 (8): 4691-4699 (2014)).

[2] = tested on: ARPE19 cells; assay: Adherence of RPE cells to MMP-1-digested (cut) collagen plates treated with CMP; assay type: cell-based, human; settings: 100 μM CMP on cut collagen; 19 hours
Experimental: (§1) Plates were then rinsed with culture medium, and ARPE-19 cells were plated uniformly on plates having one of three surface coating conditions: (1) intact collagen; (2) cut collagen; and (3) cut collagen+CMP. Plates were then incubated at 37° C. for 19 hours, and then examined for cell adherence by phase contrast microscopy.

[3] = cited from earlier work; for melting temperature of a triple helix: Sakakibara et al. 1973
[4] = tested on: dorsal root ganglia (DRG) neurons; assay: Neurite outgrowth in dorsal root ganglion neurons on cut collagen plates treated with CMP; assay type: cell-based, rat; settings: 100 μM CMP on cut collagen; 48 hours
Experimental: as §1, with “DRG neuronal” for “ARPE-19”, “48” for “19”, “morphology and neurite outgrowth” for “cell adherence”, “inverted brightfield” for “phase contrast”

| Substance | adherence of RPE cells, quantitative, normalized to cut collagen [2] | melting temperature of a triple helix [3] [°C] | other results |
| --- | --- | --- | --- |
| epidermal growth factor [EGF, positive control in the corneal wound model, 100 ng/ml] |  |  | wound healing in mouse cornea and corneal stroma (diameter and intensity of fluorescein fluorescence) [1]: lower level of healing |
| Flp-Hyp-Gly-Flp-Hyp-Gly-Flp-Hyp-Gly-Flp-Hyp-Gly-Flp-Hyp-Gly-Flp-Hyp-Gly-Flp-Hyp-Gly [CMP B] | significantly increased adhesion |  | adherence of RPE cells in photomicrographs vs. cut collagen plates [2]: increased adherence |
| (ProHypGly)10 |  | 58 | rate at which chains fold into a triple helix ([3]; relative to (ProProGly)10, Chopra and Ananthanarayanan 1982): substantially greater |
| Pro-Flp-Gly-Pro-Flp-Gly-Pro-Cys-Gly-Pro-Flp-Gly-Pro-Flp-Gly-Pro-Flp-Gly-Pro-Flp-Gly [CMP D] | significantly increased adhesion |  | length of the longest neurite normalized to cut collagen [4]: even exceeded that observed with intact collagen |
| (ProProGly)10 |  | 24 |  |

— US12419936B2, “Collagen peptide-based medicament compositions and devices and methods of production and use thereof” (SUSTAIN HOLDINGS, LLC, priority 2019, dated 2025)
